Measured values taken from PubChem BioAssay (NCI).
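These data come from cells grown in 96-well plates and exposed to compound for 48 hours at five concentrations. TGI: total growth inhibition.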

Tests used:
Test in all cases: NCI-60 cell line screen, 48 h
NCI-H522 lung = system: NCI-H522 lung
UACC-257 melanoma = system: UACC-257 melanoma
HL-60(TB) leukemia = system: HL-60(TB) leukemia
OVCAR-5 ovarian = system: OVCAR-5 ovarian
M14 melanoma = system: M14 melanoma
MOLT-4 leukemia = system: MOLT-4 leukemia
MALME-3M melanoma = system: MALME-3M melanoma
RXF 393 renal = system: RXF 393 renal
HCC-2998 colon = system: HCC-2998 colon
SF-295 CNS = system: SF-295 CNS
SK-MEL-5 melanoma = system: SK-MEL-5 melanoma
NCI-H226 lung = system: NCI-H226 lung
COLO 205 colon = system: COLO 205 colon
A549 NSCLC = system: A549 NSCLC
SK-OV-3 ovarian = system: SK-OV-3 ovarian
TK-10 renal = system: TK-10 renal
MCF7 breast = system: MCF7 breast
T-47D breast = system: T-47D breast
HOP-92 NSCLC = system: HOP-92 NSCLC
SK-MEL-28 melanoma = system: SK-MEL-28 melanoma
NCI-H23 lung = system: NCI-H23 lung
786-0 renal = system: 786-0 renal
DU-145 prostate = system: DU-145 prostate
OVCAR-4 ovarian = system: OVCAR-4 ovarian
HS 578T breast = system: HS 578T breast
SK-MEL-2 melanoma = system: SK-MEL-2 melanoma
MDA-MB-435 = system: MDA-MB-435
SF-539 CNS = system: SF-539 CNS
BT-549 breast = system: BT-549 breast
HOP-62 NSCLC = system: HOP-62 NSCLC
A498 renal = system: A498 renal
UO-31 renal = system: UO-31 renal
KM12 colon = system: KM12 colon
EKVX NSCLC = system: EKVX NSCLC
K-562 leukemia = system: K-562 leukemia
LOX IMVI melanoma = system: LOX IMVI melanoma
UACC-62 melanoma = system: UACC-62 melanoma
U251 CNS = system: U251 CNS
SN12C renal = system: SN12C renal
NCI/ADR-RES ovarian = system: NCI/ADR-RES ovarian
ACHN renal = system: ACHN renal
SR leukemia = system: SR leukemia
SNB-19 CNS = system: SNB-19 CNS
OVCAR-3 ovarian = system: OVCAR-3 ovarian
RPMI-8226 leukemia = system: RPMI-8226 leukemia
PC-3 prostate = system: PC-3 prostate
SF-268 CNS = system: SF-268 CNS
MDA-N = system: MDA-N
CAKI-1 renal = system: CAKI-1 renal
SNB-75 CNS = system: SNB-75 CNS
HT29 colon = system: HT29 colon
IGROV1 ovarian = system: IGROV1 ovarian
OVCAR-8 ovarian = system: OVCAR-8 ovarian
HCT-15 colon = system: HCT-15 colon
SW-620 colon = system: SW-620 colon
NCI-H460 lung = system: NCI-H460 lung
MDA-MB-231 breast = system: MDA-MB-231 breast
HCT-116 colon = system: HCT-116 colon
CCRF-CEM leukemia = system: CCRF-CEM leukemia

O=C(Oc1cccc2cccnc12)c1cc2cc(CCl)ccc2oc1=O
TGI (NCI-H522 lung): 8.87 µM
TGI (UACC-257 melanoma): > 100 µM
TGI (HL-60(TB) leukemia): 77.4 µM
TGI (OVCAR-5 ovarian): > 100 µM
TGI (M14 melanoma): 88.4 µM
TGI (MOLT-4 leukemia): > 100 µM
TGI (MALME-3M melanoma): 39.7 µM
TGI (RXF 393 renal): 49.6 µM
TGI (HCC-2998 colon): 50.6 µM
TGI (SF-295 CNS): > 100 µM
TGI (SK-MEL-5 melanoma): > 100 µM
TGI (NCI-H226 lung): > 100 µM
TGI (COLO 205 colon): 39.9 µM
TGI (A549 NSCLC): > 100 µM
TGI (SK-OV-3 ovarian): > 100 µM
TGI (TK-10 renal): > 100 µM
TGI (MCF7 breast): 11.4 µM
TGI (T-47D breast): 54.5 µM
TGI (HOP-92 NSCLC): > 100 µM
TGI (SK-MEL-28 melanoma): > 100 µM
TGI (NCI-H23 lung): 42.8 µM
TGI (786-0 renal): 46.7 µM
TGI (DU-145 prostate): > 100 µM
TGI (OVCAR-4 ovarian): > 100 µM
TGI (HS 578T breast): > 100 µM
TGI (SK-MEL-2 melanoma): 79.8 µM
TGI (MDA-MB-435): > 100 µM
TGI (SF-539 CNS): > 100 µM
TGI (BT-549 breast): > 100 µM
TGI (HOP-62 NSCLC): > 100 µM
TGI (A498 renal): > 100 µM
TGI (UO-31 renal): 72.2 µM
TGI (KM12 colon): > 100 µM
TGI (EKVX NSCLC): 6.38 µM
TGI (K-562 leukemia): > 100 µM
TGI (LOX IMVI melanoma): > 100 µM
TGI (UACC-62 melanoma): 36.8 µM
TGI (U251 CNS): 88.4 µM
TGI (SN12C renal): 54.4 µM
TGI (NCI/ADR-RES ovarian): > 100 µM
TGI (ACHN renal): > 100 µM
TGI (SR leukemia): > 100 µM
TGI (SNB-19 CNS): > 100 µM
TGI (OVCAR-3 ovarian): > 100 µM
TGI (RPMI-8226 leukemia): > 100 µM
TGI (PC-3 prostate): 31.3 µM
TGI (SF-268 CNS): 52.7 µM
TGI (MDA-N): > 100 µM
TGI (CAKI-1 renal): 85.5 µM
TGI (SNB-75 CNS): > 100 µM
TGI (HT29 colon): 33 µM
TGI (IGROV1 ovarian): > 100 µM
TGI (OVCAR-8 ovarian): > 100 µM
TGI (HCT-15 colon): 24.2 µM
TGI (SW-620 colon): > 100 µM
TGI (NCI-H460 lung): 40.9 µM
TGI (MDA-MB-231 breast): 89.4 µM
TGI (HCT-116 colon): 13.8 µM

CC1=CN(c2ccccc2)S2=C1c1sc3c(c1N2c1ccc(Br)cc1)CCCC3 (stereo not given)
TGI (NCI-H522 lung): > 100 µM
TGI (UACC-257 melanoma): > 100 µM
TGI (HL-60(TB) leukemia): > 100 µM
TGI (OVCAR-5 ovarian): > 100 µM
TGI (M14 melanoma): > 100 µM
TGI (MOLT-4 leukemia): > 100 µM
TGI (CCRF-CEM leukemia): > 100 µM
TGI (RXF 393 renal): > 100 µM
TGI (HCC-2998 colon): > 100 µM
TGI (SF-295 CNS): > 100 µM
TGI (SK-MEL-5 melanoma): > 100 µM
TGI (NCI-H226 lung): > 100 µM
TGI (COLO 205 colon): > 100 µM
TGI (A549 NSCLC): > 100 µM
TGI (SK-OV-3 ovarian): > 100 µM
TGI (TK-10 renal): > 100 µM
TGI (MCF7 breast): > 100 µM
TGI (T-47D breast): > 100 µM
TGI (HOP-92 NSCLC): > 100 µM
TGI (SK-MEL-28 melanoma): > 100 µM
TGI (NCI-H23 lung): > 100 µM
TGI (786-0 renal): > 100 µM
TGI (DU-145 prostate): > 100 µM
TGI (OVCAR-4 ovarian): > 100 µM
TGI (HS 578T breast): > 100 µM
TGI (SK-MEL-2 melanoma): > 100 µM
TGI (MDA-MB-435): > 100 µM
TGI (SF-539 CNS): > 100 µM
TGI (BT-549 breast): > 100 µM
TGI (HOP-62 NSCLC): > 100 µM
TGI (A498 renal): > 100 µM
TGI (UO-31 renal): > 100 µM
TGI (KM12 colon): > 100 µM
TGI (EKVX NSCLC): > 100 µM
TGI (K-562 leukemia): > 100 µM
TGI (LOX IMVI melanoma): > 100 µM
TGI (UACC-62 melanoma): > 100 µM
TGI (U251 CNS): > 100 µM
TGI (SN12C renal): > 100 µM
TGI (NCI/ADR-RES ovarian): > 100 µM
TGI (ACHN renal): > 100 µM
TGI (SR leukemia): > 100 µM
TGI (SNB-19 CNS): > 100 µM
TGI (OVCAR-3 ovarian): > 100 µM
TGI (RPMI-8226 leukemia): > 100 µM
TGI (PC-3 prostate): > 100 µM
TGI (SF-268 CNS): > 100 µM
TGI (MDA-N): > 100 µM
TGI (CAKI-1 renal): > 100 µM
TGI (HT29 colon): > 100 µM
TGI (IGROV1 ovarian): > 100 µM
TGI (OVCAR-8 ovarian): > 100 µM
TGI (HCT-15 colon): > 100 µM
TGI (SW-620 colon): > 100 µM
TGI (NCI-H460 lung): > 100 µM
TGI (MDA-MB-231 breast): > 100 µM
TGI (HCT-116 colon): > 100 µM
